Consider seven compounds from PubChem BioAssay AID1963971 (Molecular Pharmacology Branch, DTP, NCI, 2024).

Several values for one entry are separate records, joined by “and”; a condition that tells them apart may be missing. Equal entries are not always repeated. A value given as a limit tells only on which side of the number the result lay.

The subject of the assay is 953936-095-R-J2-PDC spheroids with HUVEC/MSC, viability. Kind of assay: Anticancer human tumor 953936-095-R-J2-PDC patient-derived cervical squamous cell carcinoma cell line growth inhibition [PI3K]. The following applies: for viability, T/C: stronger effect = lower value. An excerpt:
Combinatorial screen of targeted agents with the PI3K inhibitors inavolisib, alpelisib, duvelisib, and copanlisib in multi-cell type tumor spheroids
A high-throughput screen of multi-cell type tumor spheroids was designed to identify active combinations of targeted small molecules and PI3K pathway inhibitors. Complex spheroids include a stromal component modeled by human endothelial cells (HUVEC) and fibroblasts modeled by human mesenchymal stem cells (MSCs). The concentration ranges selected for each drug and investigational agent were based upon clinically achievable concentrations if the clinical Cmax of the agent was known.
Compounds. The drugs and investigational agents: inavolisib (NSC800729), alpelisib (NSC765974), duvelisib (NSC772469), copanlisib (NSC816437), ipatasertib (NSC767898), afuresertib (NSC778305), talazoparib (NSC767125), sapanisertib (NSC764658), selumetinib (NSC741078), tovorafenib (DAY101, NSC766906), vemurafenib (NSC761431), ravoxertinib (NSC781343), sotorasib (NSC818433), MRTX1133 (NSC 836407), abemaciclib (NSC 768073), palbociclib (NSC758247), venetoclax (NSC 766270), SY5609 (NSC837396), enzalutamide (NSC755605), and darolutamide (NSC825331), were obtained from the National Cancer Institute (NCI) Developmental Therapeutics Program Chemical Repository. The FDA-approved anticancer drug set is available from the NCI Developmental Therapeutics Program. […] The stock solutions were prepared in dimethyl sulfoxide (DMSO, Sigma-Aldrich, St. Louis, MO, cat. D2650) at 800-fold the tested concentration and stored at -70 degrees C prior to their use. All drugs and investigational agents were tested over a range starting from a high concentration at or near the clinical Cmax and decreasing in half-log increments. If the clinical Cmax for an agent had not been determined, the highest concentration tested was 10 microM.
Cell Culture. All cells were maintained in an incubator at 37 degrees C and 5% CO2 with 95% humidity. The PDC lines were cultured according to standard operating procedures established by the NCI PDMR (https://pdmr.cancer.gov/sops/default.htm). All PDCs were thawed and cultured in Matrigel-coated flasks prepared with a working solution of 1X Ham's F-12 nutrient mix, without supplementation (Invitrogen, Waltham, MA, cat. 11765054), 100 U/mL penicillin-streptomycin (Invitrogen, cat. 15140122), and 2.5% Matrigel (Corning Inc., Corning, NY, cat. 354248) for the first three passages. The 354836-022-R-J1-PDC, 475296-252-R-J1-PDC, and 997726-040-R-J2-PDC lines were cultured in 6A media, which includes advanced DMEM/F-12 (Thermo Fisher Scientific, cat. 12634028), 10 mM HEPES (Thermo Fisher Scientific, cat. 15630080), 1X GlutaMAX supplement (Thermo Fisher Scientific, cat. 35050061), 0.1 mg/mL primocin (InvivoGen, San Diego, CA, cat. ant-pm-2), 10% defined fetal bovine serum, heat inactivated (HyClone Laboratories Inc., Logan, UT, cat. SH30070.03HI), 50% L-WRN conditioned media (ATCC, cat. CRL-3276), 1.25 mM N-Acetyl-L-cysteine (Sigma-Aldrich, cat. A9165), 10 mM nicotinamide (Sigma-Aldrich, cat. N0636), 1X B-27 supplement (Thermo Fisher Scientific, cat. 17504044), 1X N-2 supplement (Thermo Fisher Scientific, cat. 17502048), and 10 microM Y-27632 dihydrochloride (Tocris Bioscience, Bristol, United Kingdom, cat. 1254). The 624824-186-R-J2-PDC line was cultured in 6C/Colon 1B media, which includes all 6A media components plus 50 ng/mL human EGF recombinant protein (Thermo Fisher Scientific, cat. PHG0311). […]
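Also: spheroids exposed to compounds for seven days before read-out.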

Take `C#Cc1c(F)ccc2cc(O)cc(-c3ncc4c(N5CC6CCC(C5)N6)nc(OCC56CCCN5CC(F)C6)nc4c3F)c12` (stereo unspecified): the viability, T/C (usually the result in the treated group divided by that in the control group, in per cent) is 115% [middle of 4 runs] (compound 0.0316 µM); 97.5% [middle of 4 runs] (compound 0.1 µM); 101% [middle of 4 runs] (compound 0.316 µM); 92.4% [middle of 4 runs] (compound 1 µM); 85.2% [middle of 4 runs] (compound 3.16 µM); 81% [middle of 4 runs] (compound 10 µM). Besides, where the note is “curve of compound”, the half-maximal inhibitory concentration (IC50) (in general, the concentration needed to halve the response being measured) is over 10000 nM.

Regarding `C=CC(=O)N1CCN(c2nc(=O)n(-c3c(C)ccnc3C(C)C)c3nc(-c4c(O)cccc4F)c(F)cc23)C(C)C1` (stereo unspecified), the viability, T/C reads like this: (compound 0.0316 µM) 93.6% [middle of 4 runs]; (compound 0.1 µM) 100% (2×) and 105% and 96.7%; (compound 0.316 µM) 108% [middle of 4 runs]; (compound 1 µM) 121% [middle of 4 runs]; (compound 10 µM) 118% (2×) and 112% and 127%. Also, the IC50 (curve of compound) was over 10000 nM.

Take `CC(Cn1ccc(-c2ccc(C#N)c(Cl)c2)n1)NC(=O)c1cc(C(C)O)[nH]n1` (stereo unspecified): the viability, T/C (compound 0.0316 µM) is 91.2% [middle of 4 runs]; the viability, T/C (compound 0.1 µM) was 96.5% [middle of 4 runs]; the viability, T/C (compound 0.316 µM) is 97.1% [middle of 4 runs]; the viability, T/C (compound 1 µM) is 108% and 101% (2×) and 96.8%; the viability, T/C (compound 10 µM) was 99.4% (2×) and 105% and 106%. In addition, the IC50 (curve of compound) was over 10000 nM.

As to `CC1(C)CCC(Nc2ncc(C(F)(F)F)c(-c3c[nH]c4c(P(C)(C)=O)c(C#N)ccc34)n2)CN1` (stereo unspecified), the viability, T/C is, setting by setting: (compound 0.0316 µM) 51.7% [middle of 4 runs]; (compound 0.1 µM) 51.8% [middle of 4 runs]; (compound 0.316 µM) 53.5% [middle of 4 runs]; (compound 1 µM) 53.4% [middle of 4 runs]; (compound 3.16 µM) 55% and 54.4% (2×) and 52.7%; (compound 10 µM) 7.36% [middle of 4 runs].

For the compound `Cn1ncc(Cl)c1-c1cc(C(=O)NC(CN)Cc2cccc(F)c2)sc1Cl` (stereo unspecified), the viability, T/C (compound 0.0316 µM) is 93.5% [middle of 4 runs]; the viability, T/C (compound 0.1 µM) is 82.7% [middle of 4 runs]; the viability, T/C (compound 0.316 µM) was 64.7% [middle of 4 runs]; the viability, T/C (compound 1 µM) is 37.6% and 37.7% (2×) and 35.5%; the viability, T/C (compound 3.16 µM) was 21.1% [middle of 4 runs]; the viability, T/C (compound 10 µM) was 13.2% and 12.6% (2×) and 13.7%. Also, for the setting “curve of compound”, the IC50 was 597 nM [middle of 4 runs].

On to `Cn1nccc1Nc1nccc(-c2ccn(C(CO)c3ccc(Cl)c(F)c3)c(=O)c2)n1` (stereo unspecified), for which the viability, T/C (compound 0.0316 µM) was 90.7% [middle of 4 runs]; the viability, T/C (compound 0.1 µM) is 97.3% [middle of 4 runs]; the viability, T/C (compound 0.316 µM) was 91.1% [middle of 4 runs]; the viability, T/C (compound 1 µM) was 90% [middle of 4 runs]; the viability, T/C (compound 3.16 µM) is 82.7% [middle of 4 runs]; the viability, T/C (compound 10 µM) was 77.9% [middle of 4 runs]. Further, the half-inhibitory concentration (IC50) (curve of compound) is over 10000 nM.

As to `Cn1cnc2c(F)c(Nc3ccc(Br)cc3Cl)c(C(=O)NOCCO)cc21` + CC(Nc1ccc2c(c1)OCCn1cc(N3C(=O)OCC3C(F)F)nc1-2)C(N)=O, the IC50 (curve of first compound, second compound 0.00316 µM) is 494 nM; the IC50 (curve of first compound, second compound 0.01 µM) turned out to be 279 nM; the concentration for half-maximal inhibition (IC50) (curve of first compound, second compound 0.0316 µM) worked out at 88.5 nM; the IC50 (curve of first compound, second compound 0.1 µM) was under 9.49 nM; the concentration for half-maximal inhibition (IC50) (curve of first compound, second compound 0.316 µM) is under 9.49 nM; the 50% inhibitory concentration (IC50) (curve of first compound, second compound 1 µM) was under 9.49 nM. Further, the viability, T/C is 88.3% (second compound 0.00316 µM, first compound 0.00949 µM); 81.4% (second compound 0.00316 µM, first compound 0.03 µM); 66% (second compound 0.00316 µM, first compound 0.0949 µM); 55.7% (second compound 0.00316 µM, first compound 0.3 µM); 43.7% (second compound 0.00316 µM, first compound 0.949 µM); 30.2% (second compound 0.00316 µM, first compound 3 µM). The viability, T/C by setting is: (second compound 0.01 µM, first compound 0.00949 µM) 75.6%; (second compound 0.01 µM, first compound 0.03 µM) 68.5%; (second compound 0.01 µM, first compound 0.0949 µM) 60%; (second compound 0.01 µM, first compound 0.3 µM) 51.5%; (second compound 0.01 µM, first compound 0.949 µM) 35%; (second compound 0.01 µM, first compound 3 µM) 26.3%. Also, the viability, T/C is, setting by setting: (second compound 0.0316 µM, first compound 0.00949 µM) 67.9%; (second compound 0.0316 µM, first compound 0.03 µM) 56.6%; (second compound 0.0316 µM, first compound 0.0949 µM) 49.7%; (second compound 0.0316 µM, first compound 0.3 µM) 42.5%; (second compound 0.0316 µM, first compound 0.949 µM) 29.7%; (second compound 0.0316 µM, first compound 3 µM) 20.6%. Further, the viability, T/C (second compound 0.1 µM, first compound 0.00949 µM) is 46%; the viability, T/C (second compound 0.1 µM, first compound 0.03 µM) was 41.2%; the viability, T/C (second compound 0.1 µM, first compound 0.0949 µM) is 38.7%; the viability, T/C (second compound 0.1 µM, first compound 0.3 µM) is 23.9%; the viability, T/C (second compound 0.1 µM, first compound 0.949 µM) was 16.1%; the viability, T/C (second compound 0.1 µM, first compound 3 µM) was 7.95%. Also, the viability, T/C runs as follows: (second compound 0.316 µM, first compound 0.00949 µM) 28.1%; (second compound 0.316 µM, first compound 0.03 µM) 23%; (second compound 0.316 µM, first compound 0.0949 µM) 16.6%; (second compound 0.316 µM, first compound 0.3 µM) 11.6%; (second compound 0.316 µM, first compound 0.949 µM) 6.22%; (second compound 0.316 µM, first compound 3 µM) 3.26%. Moreover, the viability, T/C is 18.6% (second compound 1 µM, first compound 0.00949 µM); 14.5% (second compound 1 µM, first compound 0.03 µM); 10.3% (second compound 1 µM, first compound 0.0949 µM); 8.09% (second compound 1 µM, first compound 0.3 µM); 4.74% (second compound 1 µM, first compound 0.949 µM); 1.5% (second compound 1 µM, first compound 3 µM).
